The subject of data set [1] is Plasmodium berghei. As to the kind of experiment: Antimalarial activity against Plasmodium berghei infected in mouse assessed as change in mean survival time at 640 mg/kg, sc. It is filed as functional. The conditions noted are these: route subcutaneous.
Data set [2] deals with Mus musculus. Nature of the data set: Toxicity in mouse infected with Plasmodium berghei assessed as animal death at 640 mg/kg, sc. It is filed as organism-based. On the set-up: dose 640 mg/kg, route subcutaneous. The conditions noted are these: in vivo.
Data set [3] concerns Plasmodium berghei. As to the kind of experiment: Antimalarial activity against Plasmodium berghei infected in mouse assessed as change in mean survival time at 160 mg/kg, sc. It counts as functional. The conditions noted are these: route subcutaneous.
The subject of data set [4] is Mus musculus. As to the kind of experiment: Phototoxicity in ip dosed mouse. It counts as organism-based. The conditions noted are these: in vivo.
Data set [5] concerns Plasmodium berghei. Nature of the data set: Antimalarial activity against Plasmodium berghei infected in mouse assessed as change in mean survival time at 320 mg/kg, sc. It counts as functional. Conditions: route subcutaneous.
Data set [6] concerns Plasmodium berghei. Nature of the data set: Antimalarial activity against Plasmodium berghei infected in mouse assessed as disease cure by measuring host survival for 60 days at 320 mg/kg, sc. It is filed as functional, organism-based. On the set-up: dose 320 mg/kg.
Data set [7] has as its system Plasmodium berghei. Nature of the data set: Antimalarial activity against Plasmodium berghei infected in mouse assessed as disease cure by measuring host survival for 60 days at 640 mg/kg, sc. It counts as functional, organism-based. On the set-up: dose 640 mg/kg.
Data set [8] relates to Mus musculus. As to the kind of experiment: Toxicity in mouse infected with Plasmodium berghei assessed as animal death at 320 mg/kg, sc. It is filed as organism-based. On the set-up: dose 320 mg/kg, route subcutaneous. Conditions: in vivo.
Data set [9] deals with Plasmodium berghei. Nature of the data set: Antimalarial activity against Plasmodium berghei infected in mouse assessed as disease cure by measuring host survival for 60 days at 160 mg/kg, sc. On the set-up: dose 160 mg/kg. It is filed as functional, organism-based.

The source made the active and inactive calls. The rule behind the calls is not given here.

As to `C=C[C@H]1CN2CC[C@H]1C[C@H]2[C@H](O)c1ccnc2ccc(OC)cc12` [QUININE], the MST is 4.8 days in data set [1] and 0.6 days in data set [3]. In data set [2], the Activity result is given as “Non-toxic”. In addition, in [4], the MED result is “Not Active”.

For `CCCCN(CCCC)CC(O)c1cc(C(C)(C)C)nc2c1cc(C)c1ccccc12.O=C(O)C(=O)O` (stereo not given), the values for the MST in data set [1], in data set [3] and in [5] were 5.9 days, 2.7 days and 3.5 days, respectively. Moreover, the Activity result in data set [2] was “Non-toxic”. This molecule registered an MED in data set [4] of 300 mg/kg.

As to `CCCCN(CCCC)CC(O)c1c(C)cnc2c1ccc1ccccc12.Cl` (stereo not given), the MST stood at 5.3 days in data set [1], 0.9 days in data set [3] and 2.9 days in data set [5]. In addition, the Activity entry in data set [2] is “Non-toxic”. For the same molecule, in [4], the MED result is on record as “Not Active”.

As to `CCCCN(CCCC)CC(O)c1cc(-c2ccc(C)cc2C)nc2c1cc(Cl)c1ccccc12.Cl` (stereo not given), in data set [2], the Activity result is “Non-toxic”. Further, in data set [3], the MST was 9 days. Moreover, the outcome in [6] and in data set [7] was Active.

Regarding `CCCCN(CCCC)CC(O)c1c(C)cnc2c1cc(Cl)c1ccccc12.Cl` (stereo not given), in [2], the Activity entry was “Non-toxic”. Moreover, the results for the MST in [3] and in [5] were 6.9 days and 12.9 days, respectively. Besides, the MED in data set [4] is 400 mg/kg. In addition, in data set [7], the result was Active.

`CCCCN(CCCC)CC(O)c1cc(-c2cc(OC)c(OC)c(OC)c2)nc2c1cc(Cl)c1ccccc12.Cl` (stereo not given): the outcome in data set [6] and in data set [9] was Active. Also, the MED in data set [4] was determined as 80 mg/kg. In addition, the Activity result in [8] is “Non-toxic”.

As to `CCCCN(CCCC)CC(O)c1cc(-c2ccc(C)cc2C)nc2c1ccc1ccccc12.Cl` (stereo not given), the MST in data set [1] was 5.6 days; in data set [3], 4.2 days; in data set [5], 4.6 days. In addition, the Activity result in [2] is recorded as “Non-toxic”. For the same molecule, the MED in [4] stood at 300 mg/kg.

For the molecule `CCCCN(CCCC)CC(O)c1c(C)cnc2c1ccc1cccc(Cl)c12.Cl` (stereo not given), the MST in data set [1] worked out at 8.2 days; in data set [3] it was 1.2 days; in [5] it was 6.2 days. For the same molecule, the Activity entry in data set [2] is “Non-toxic”. The molecule further gave an MED in data set [4] of 200 mg/kg.

Regarding `C=C[C@H]1CN2CC[C@H]1C[C@H]2[C@H](O)c1cc(-c2ccccc2)nc2ccc(OC)cc12`, in [2], the Activity entry is recorded as “Non-toxic”. For the same molecule, in data set [3], the MST worked out at 5.8 days. In [4], this molecule returned an MED of 10 mg/kg. Further, the outcome in [7] was Active.

Turning to `CCCCN(CCCC)CC(O)c1cc(C(C)(C)C)nc2c1ccc1ccccc12.O=C(O)C(=O)O` (stereo not given), the MST was 10.2 days in [1] and 1.2 days in [5]. The Activity result in data set [2] is “Toxic”. Besides, in data set [4], the MED was found to be 100 mg/kg.

On to `CCCCN(CCCC)CC(O)c1cc(C(C)(C)C)nc2c1cc(Cl)c1ccccc12.O=C(O)C(=O)O` (stereo not given), for which, in data set [2], the Activity result was “Non-toxic”. Further, the MST in data set [3] came out at 2.2 days. Besides, the outcome in data set [6] and in [7] was Active. In data set [4], this molecule came in with an MED of 100 mg/kg.

For the origin of these results see ChEMBL document CHEMBL3272020, “Synthesis, antimalarial activity, and phototoxicity of some benzo(h)quinoline-4-methanols” (J Med Chem, 1976).
